# How the values were obtained:
# [1] = Amount of salicylic acid in rat cerebrospinal fluid (CSF), 0.3 mmol/kg; type: in vivo, rats
# Procedure: 27 male rats were divided into 4 groups […]. […] Amounts of salicylic acid in rat CSF were determined.
# SLAC/MRL/LPR mice = experiment: Lupus in MRL/LPR mice treated from 8 weeks old, 30 mg/kg (10% aq.) on back skin twice per day; type: in vivo
# Procedure: . Progression of lupus was monitored once a week by measurement of hematuria, body weight and survival rate. The experiments were carried out in two groups of mice. One group of mice were 8 weeks old and had not shown SLE characteristics (Table 26a). The other group of mice were 16 weeks old, and had shown SLE characteristics (Table 26b).
smiles,measurement,setting,value
"CCN(CC)CCOC(=O)c1ccccc1OC(C)=O.Cl [P-1, diethylaminoethyl acetylsalicylate.HCl salt]",salicylic acid in CSF,"[1]; intramuscularly, 1 hour",36.4 ± 4.3 nmol/g
same,salicylic acid in CSF,"[1]; intramuscularly, 8 hours",28.2 ± 6.5 nmol/g
same,salicylic acid in CSF,"[1]; intramuscularly, 18 hours",15.1 ± 4.7 nmol/g
same,salicylic acid in CSF,"[1]; transdermally, 1 hour",38 ± 17 nmol/g
same,salicylic acid in CSF,"[1]; transdermally, 8 hours",28.4 ± 7.5 nmol/g
same,salicylic acid in CSF,"[1]; transdermally, 18 hours",22.3 ± 5.4 nmol/g
same,Body Weight,SLAC/MRL/LPR mice; week 8,30.5 ± 2.6 g
same,Hematuria (0-4),SLAC/MRL/LPR mice; week 8,0
same,Survival Rate,SLAC/MRL/LPR mice; week 8,10/10
same,Body Weight,SLAC/MRL/LPR mice; week 9,33.5 ± 2.1 g
same,Hematuria (0-4),SLAC/MRL/LPR mice; week 9,0
same,Survival Rate,SLAC/MRL/LPR mice; week 9,10/10
same,Body Weight,SLAC/MRL/LPR mice; week 10,36.2 ± 2.7 g
same,Hematuria (0-4),SLAC/MRL/LPR mice; week 10,0
same,Survival Rate,SLAC/MRL/LPR mice; week 10,10/10
same,Body Weight,SLAC/MRL/LPR mice; week 11,39.9 ± 2.1 g
same,Hematuria (0-4),SLAC/MRL/LPR mice; week 11,0
same,Survival Rate,SLAC/MRL/LPR mice; week 11,10/10
same,Body Weight,SLAC/MRL/LPR mice; week 12,42.7 ± 2.3 g
same,Hematuria (0-4),SLAC/MRL/LPR mice; week 12,0
same,Survival Rate,SLAC/MRL/LPR mice; week 12,10/10
same,Body Weight,SLAC/MRL/LPR mice; week 13,44.7 ± 2.4 g
same,Hematuria (0-4),SLAC/MRL/LPR mice; week 13,0
same,Survival Rate,SLAC/MRL/LPR mice; week 13,10/10
same,Body Weight,SLAC/MRL/LPR mice; week 14,47.1 ± 1.8 g
same,Hematuria (0-4),SLAC/MRL/LPR mice; week 14,0
same,Survival Rate,SLAC/MRL/LPR mice; week 14,10/10
same,Body Weight,SLAC/MRL/LPR mice; week 15,48.9 ± 2.6 g
same,Hematuria (0-4),SLAC/MRL/LPR mice; week 15,0
same,Survival Rate,SLAC/MRL/LPR mice; week 15,10/10
same,Body Weight,SLAC/MRL/LPR mice; week 16,49.6 ± 2.1 g
same,Hematuria (0-4),SLAC/MRL/LPR mice; week 16,0
same,Survival Rate,SLAC/MRL/LPR mice; week 16,10/10
same,Body Weight,SLAC/MRL/LPR mice; week 17,50.2 ± 2.5 g
same,Hematuria (0-4),SLAC/MRL/LPR mice; week 17,0
same,Survival Rate,SLAC/MRL/LPR mice; week 17,10/10
same,Body Weight,SLAC/MRL/LPR mice; week 18,50.6 ± 2.4 g
same,Hematuria (0-4),SLAC/MRL/LPR mice; week 18,0
same,Survival Rate,SLAC/MRL/LPR mice; week 18,10/10
same,Body Weight,SLAC/MRL/LPR mice; week 19,50.9 ± 2.3 g
same,Hematuria (0-4),SLAC/MRL/LPR mice; week 19,0
same,Survival Rate,SLAC/MRL/LPR mice; week 19,10/10
same,Body Weight,SLAC/MRL/LPR mice; week 20,51.1 ± 2.0 g
same,Hematuria (0-4),SLAC/MRL/LPR mice; week 20,0
same,Survival Rate,SLAC/MRL/LPR mice; week 20,10/10
same,Body Weight,SLAC/MRL/LPR mice; week 21,50.9 ± 2.3 g
same,Hematuria (0-4),SLAC/MRL/LPR mice; week 21,0
same,Survival Rate,SLAC/MRL/LPR mice; week 21,10/10
same,Body Weight,SLAC/MRL/LPR mice; week 22,50.4 ± 2.2 g
same,Hematuria (0-4),SLAC/MRL/LPR mice; week 22,0
same,Survival Rate,SLAC/MRL/LPR mice; week 22,10/10
same,Body Weight,SLAC/MRL/LPR mice; week 23,50.9 ± 2.1 g
same,Hematuria (0-4),SLAC/MRL/LPR mice; week 23,0
same,Survival Rate,SLAC/MRL/LPR mice; week 23,10/10
same,Body Weight,SLAC/MRL/LPR mice; week 24,51.2 ± 2.5 g
same,Hematuria (0-4),SLAC/MRL/LPR mice; week 24,0
same,Survival Rate,SLAC/MRL/LPR mice; week 24,10/10
same,Body Weight,SLAC/MRL/LPR mice; week 25,50.8 ± 2.2 g
same,Hematuria (0-4),SLAC/MRL/LPR mice; week 25,0
same,Survival Rate,SLAC/MRL/LPR mice; week 25,10/10
same,Body Weight,SLAC/MRL/LPR mice; week 26,50.7 ± 2.6 g
same,Hematuria (0-4),SLAC/MRL/LPR mice; week 26,0
same,Survival Rate,SLAC/MRL/LPR mice; week 26,10/10
same,Body Weight,SLAC/MRL/LPR mice; week 27,50.3 ± 2.1 g
same,Hematuria (0-4),SLAC/MRL/LPR mice; week 27,0
same,Survival Rate,SLAC/MRL/LPR mice; week 27,10/10
same,Body Weight,SLAC/MRL/LPR mice; week 28,50.6 ± 2.0 g
same,Hematuria (0-4),SLAC/MRL/LPR mice; week 28,0
same,Survival Rate,SLAC/MRL/LPR mice; week 28,10/10
same,Body Weight,SLAC/MRL/LPR mice; week 29,50.1 ± 2.0 g
same,Hematuria (0-4),SLAC/MRL/LPR mice; week 29,0
same,Survival Rate,SLAC/MRL/LPR mice; week 29,10/10
same,Body Weight,SLAC/MRL/LPR mice; week 30,49.8 ± 2.1 g
same,Hematuria (0-4),SLAC/MRL/LPR mice; week 30,0
same,Survival Rate,SLAC/MRL/LPR mice; week 30,10/10
same,Body Weight,SLAC/MRL/LPR mice; week 31,50.4 ± 1.9 g
same,Hematuria (0-4),SLAC/MRL/LPR mice; week 31,0
same,Survival Rate,SLAC/MRL/LPR mice; week 31,10/10
same,Body Weight,SLAC/MRL/LPR mice; week 32,50.8 ± 2.0 g
same,Hematuria (0-4),SLAC/MRL/LPR mice; week 32,0
same,Survival Rate,SLAC/MRL/LPR mice; week 32,10/10
same,Body Weight,SLAC/MRL/LPR mice; week 33,50.6 ± 2.1 g
same,Hematuria (0-4),SLAC/MRL/LPR mice; week 33,0
same,Survival Rate,SLAC/MRL/LPR mice; week 33,10/10
same,Body Weight,SLAC/MRL/LPR mice; week 34,50.8 ± 2.3 g
same,Hematuria (0-4),SLAC/MRL/LPR mice; week 34,0
same,Survival Rate,SLAC/MRL/LPR mice; week 34,10/10
same,Body Weight,SLAC/MRL/LPR mice; week 35,50.3 ± 2.4 g
same,Hematuria (0-4),SLAC/MRL/LPR mice; week 35,0
same,Survival Rate,SLAC/MRL/LPR mice; week 35,10/10
same,Body Weight,SLAC/MRL/LPR mice; week 36,50.7 ± 2.3 g
same,Hematuria (0-4),SLAC/MRL/LPR mice; week 36,0
same,Survival Rate,SLAC/MRL/LPR mice; week 36,10/10
same,Body Weight,SLAC/MRL/LPR mice; week 37,50.9 ± 2.0 g
same,Hematuria (0-4),SLAC/MRL/LPR mice; week 37,0
same,Survival Rate,SLAC/MRL/LPR mice; week 37,10/10
same,Body Weight,SLAC/MRL/LPR mice; week 38,51.1 ± 2.6 g
same,Hematuria (0-4),SLAC/MRL/LPR mice; week 38,0
same,Survival Rate,SLAC/MRL/LPR mice; week 38,10/10
same,Body Weight,SLAC/MRL/LPR mice; week 39,50.6 ± 2.2 g
same,Hematuria (0-4),SLAC/MRL/LPR mice; week 39,0
same,Survival Rate,SLAC/MRL/LPR mice; week 39,10/10
same,Body Weight,SLAC/MRL/LPR mice; week 40,50.7 ± 2.0 g
same,Hematuria (0-4),SLAC/MRL/LPR mice; week 40,0
same,Survival Rate,SLAC/MRL/LPR mice; week 40,10/10
same,Body Weight,SLAC/MRL/LPR mice; week 41,51.2 ± 2.1 g
same,Hematuria (0-4),SLAC/MRL/LPR mice; week 41,0
same,Survival Rate,SLAC/MRL/LPR mice; week 41,10/10
same,Body Weight,SLAC/MRL/LPR mice; week 42,51.1 ± 2.6 g
same,Hematuria (0-4),SLAC/MRL/LPR mice; week 42,0
same,Survival Rate,SLAC/MRL/LPR mice; week 42,10/10
same,Body Weight,SLAC/MRL/LPR mice; week 43,50.7 ± 2.2 g
same,Hematuria (0-4),SLAC/MRL/LPR mice; week 43,0
same,Survival Rate,SLAC/MRL/LPR mice; week 43,10/10
same,Body Weight,SLAC/MRL/LPR mice; week 44,50.3 ± 2.6 g
same,Hematuria (0-4),SLAC/MRL/LPR mice; week 44,0
same,Survival Rate,SLAC/MRL/LPR mice; week 44,10/10
same,Body Weight,SLAC/MRL/LPR mice; week 45,50.7 ± 2.0 g
same,Hematuria (0-4),SLAC/MRL/LPR mice; week 45,0
same,Survival Rate,SLAC/MRL/LPR mice; week 45,10/10
same,Body Weight,SLAC/MRL/LPR mice; week 46,50.6 ± 2.3 g
same,Hematuria (0-4),SLAC/MRL/LPR mice; week 46,0
same,Survival Rate,SLAC/MRL/LPR mice; week 46,10/10
same,Body Weight,SLAC/MRL/LPR mice; week 47,50.1 ± 2.0 g
same,Hematuria (0-4),SLAC/MRL/LPR mice; week 47,0
same,Survival Rate,SLAC/MRL/LPR mice; week 47,10/10
same,Body Weight,SLAC/MRL/LPR mice; week 48,50.3 ± 2.5 g
same,Hematuria (0-4),SLAC/MRL/LPR mice; week 48,0
same,Survival Rate,SLAC/MRL/LPR mice; week 48,10/10
same,Body Weight,SLAC/MRL/LPR mice; week 49,50.7 ± 2.4 g
same,Hematuria (0-4),SLAC/MRL/LPR mice; week 49,0
same,Survival Rate,SLAC/MRL/LPR mice; week 49,10/10
same,Body Weight,SLAC/MRL/LPR mice; week 50,51.2 ± 2.1 g
same,Hematuria (0-4),SLAC/MRL/LPR mice; week 50,0
same,Survival Rate,SLAC/MRL/LPR mice; week 50,10/10
